The values that follow come from patent publication US11667652B2, “MCL1 inhibitors” (Gilead Sciences, Inc., priority 2019, dated 2023).

One assay concerns SKBR3 cells. Put plainly: SKBR3 Cell Viability Assay. In kind it is cell-based. The following applies: Homo sapiens, SK-BR-3, 72 hours, CellTiter Glo, read-out: MCL1 CV SKBR3 EC50. The procedure: SKBR3 Cell Viability Assay Materials
SKBR3 Cells (ATCC HTB-30) were obtained from ATCC (Manassas, Va.) and cultured in McCoy 5A's medium (ATCC 30-2007)+10% fetal bovine serum (SH30071.03, HyClone, Pittsburgh, Pa.) plus 1× Penicillin-Streptomycin L-glutamine (Corning 30-009-CI, Corning, N.Y.).
The cell viability assay was conducted in a 384-well tissue culture plate (Grenier 781086, Monroe, N.C.) in a total volume of 70 μL. Test compounds were prepared in 1,000×, serially diluted, and pre-spotted into 384-well tissue culture plate by Echo 555 Liquid Handler (Labcyte Inc., San Jose, Calif.). Seventy μL of 6,000 SKBR3 cells were dispensed into each well of the plate and incubated at 37° C. with 5% CO2 for 72 hours. At the end of incubation, 2× CellTiter Glo (CTG) reagents (1 part buffer with 2 parts substrate) (Promega, Madison, Wis.) were prepared, and the plate and the reagent were equilibrated to room temperature for 30 minutes. CTG reagent was added to each plate by Biomek FX at 20 μL/well with 5 times pipetting and mixing to induce cell lysis. Luminescence was read by Envision multimode reader (PerkinElmer). Percent inhibition was calculated as followed: % Inhibition=100%*(Well−Neg)/(Pos−Neg) Neg, negative control, DMSO Pos, positive control, 10 μM Puromycin

The next assay has as its target MCL1/Bim (Homo sapiens (Human), UniProt Q07820). Put plainly: MCL1/Bim Binding AlphaLISA Assay. The note with it: recombinant human 6xHis-MCL1 (171-327), biotinylated Bim peptide (51-76). The procedure:
MCL1/Bim Binding AlphaLISA Assay.
Inhibition of the MCL1 and Bim interaction was measured in the following AlphaLISA assay.
Recombinant human MCL1 protein (C-terminal 6×His Tagged MCL1 containing residues 171-327) was generated at Gilead Sciences, Inc. (Foster City, Calif.). A biotinylated peptide derived from human Bim (residues 51-76) was purchased from CPC Scientific (Sunnyvale, Calif.). (CPC 834113). AlphaLISA anti-6His- acceptor beads (AL128R), AlphaScreen Streptavidin donor beads (6760002B), and Proxiplate-384 Plus (6008289) were purchased from PerkinElmer.
The AlphaLISA assay was performed in a 384-well Proxiplate in a total volume of […]. The reaction mixture contained 0.0625 nM 6×His-MCL1 (171-327), 0.0625 nM biotinylated-Bim peptide, 10 μg/mL AlphaLISA anti-6×His-AlphaLISA acceptor beads, 40 μg/mL AlphaScreen streptavidin donor beads, and serially diluted test compounds in the binding buffer (20 mM Hepes, pH 7.5 (Teknova H1035); 150 mM NaCl (Promega V4221); 0.002% Brij 35 (Thermo Scientific 20150); 1 mM Dithiothreitol (DTT) Solution (Affymetrix 70726); 0.01% BSA (BioLabs B9000S)). 1,000× test compounds were pre-spotted onto 384-well Proxiplate (Labcyte Echo) by Echo 555 Liquid Handler (Labcyte Inc., San Jose, Calif.) followed by incubation of 5 μL MCL1(171-327) for 1 hour. Then 5 μL Bim (51-76) was added and incubated for 2 hours. Five μL AlphaLISA anti-6His-AlphaLISA acceptor beads were then added for 1 hour followed by addition of 5 μL AlphaScreen streptavidin donor beads for 1 hour. The reaction plates were then read on an Envision multimode reader (PerkinElmer) using AlphaScreen settings. Percent inhibition was calculated as shown below: % Inhibition=100%*(Well−Neg)/(Pos−Neg) Neg: negative control, DMSO Pos: positive control, no MCL1 protein, no biotinylated-Bim peptide
For orientation: In Alpha technology, singlet oxygen from a donor bead excites a nearby acceptor bead.

The structures appear in SMILES notation.

Chain of MCL1/Bim (Q07820 171-327): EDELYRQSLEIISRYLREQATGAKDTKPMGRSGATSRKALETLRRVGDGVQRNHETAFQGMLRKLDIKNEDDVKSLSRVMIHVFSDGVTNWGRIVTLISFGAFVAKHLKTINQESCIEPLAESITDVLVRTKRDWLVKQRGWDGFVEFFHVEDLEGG

As a reminder, the EC50 is the concentration giving half of the maximal effect. One may read the IC50 as the point on the concentration scale where inhibition reaches its midpoint. As for `C[C@H]1C/C=C/[C@H](O)[C@@H]2CC[C@H]2CN2C[C@@]3(CCCc4cc(Cl)ccc43)COc3ccc(cc32)C(=O)N=[S@](=O)(Nc2nc3nnnn3c3nn(C)cc23)C1` (mixture of isomers) [Example 31], the half-maximal effective concentration (EC50) with SKBR3 cells turned out to be 4390 nM. The IC50 at MCL1/Bim stood at 0.064 nM.

As to `COc1nn(C)cc1C(=O)N[S@@]1(=O)=NC(=O)c2ccc3c(c2)N(C[C@@H]2CC[C@H]2[C@@H](OCC(O)CO)/C=C/C[C@H](C)C1)C[C@@]1(CCCc2cc(Cl)ccc21)CO3` (mixture of isomers) [Example 57], the IC50 at MCL1/Bim turned out to be 0.089 nM.

On to `COc1nn(C)cc1C(=O)N[S@@]1(=O)=NC(=O)c2ccc3c(c2)N(C[C@@H]2CC[C@H]2[C@@H](OC)C/C=C\[C@H](C)C1)C[C@@]1(CCCc2cc(Cl)ccc21)CO3` (mixture of isomers) [Example 128], for which the 50% inhibitory concentration (IC50) at MCL1/Bim worked out at 0.562 nM.

Consider `CO[C@H]1/C=C/C[C@H](C)C[S@@](=O)(Nc2ncc(C#N)cn2)=NC(=O)c2ccc3c(c2)N(C[C@@H]2CC[C@H]21)C[C@@]1(CCCc2cc(Cl)ccc21)CO3` [Example 2], for which, on MCL1/Bim, the half-inhibitory concentration (IC50) was 1.89 nM.

With `CO[C@H]1/C=C/C[C@H](C)C[S@@](=O)(Nc2ncccn2)=NC(=O)c2ccc3c(c2)N(C[C@@H]2CC[C@H]21)C[C@@]1(CCCc2cc(Cl)ccc21)CO3` [Example 3], on MCL1/Bim, the half-maximal inhibitory concentration (IC50) came to 0.957 nM.

With `CO[C@H]1/C=C/C[C@H](C)C[S@@](=O)(Nc2nccc3nn(C)cc23)=NC(=O)c2ccc3c(c2)N(C[C@@H]2CC[C@H]21)C[C@@]1(CCCc2cc(Cl)ccc21)CO3` [Example 7], the IC50 at MCL1/Bim stood at 1.74 nM.

In the case of `CO[C@H]1/C=C/C[C@H](C)C[S@@](=O)(Nc2nc(O)nc3nn(C)cc23)=NC(=O)c2ccc3c(c2)N(C[C@@H]2CC[C@H]21)C[C@@]1(CCCc2cc(Cl)ccc21)CO3` [Example 11], the 50% inhibitory concentration (IC50) at MCL1/Bim amounted to 0.183 nM.

Regarding `CO[C@H]1/C=C/C[C@H](C)C[S@@](=O)(Nc2cccnn2)=NC(=O)c2ccc3c(c2)N(C[C@@H]2CC[C@H]21)C[C@@]1(CCCc2cc(Cl)ccc21)CO3` [Example 13], at MCL1/Bim, the IC50 is 2.12 nM.

`COCCn1cc2c(N[S@@]3(=O)=NC(=O)c4ccc5c(c4)N(C[C@@H]4CC[C@H]4[C@@H](OC)/C=C/C[C@H](C)C3)C[C@@]3(CCCc4cc(Cl)ccc43)CO5)ncnc2n1` [Example 14]: on MCL1/Bim, the half-inhibitory concentration (IC50) was 0.965 nM.

Regarding `CO[C@H]1/C=C/C[C@H](C)C[S@@](=O)(Nc2nc(Cl)nc3cn(C)nc23)=NC(=O)c2ccc3c(c2)N(C[C@@H]2CC[C@H]21)C[C@@]1(CCCc2cc(Cl)ccc21)CO3` [Example 16], the 50% effective concentration (EC50) with SKBR3 cells stood at 8140 nM.

For the compound `CO[C@H]1CCC[C@H](C)C[S@@](=O)(Nc2ncnc3nn(C)cc23)=NC(=O)c2ccc3c(c2)N(C[C@@H]2CC[C@H]21)C[C@@]1(CCCc2cc(Cl)ccc21)CO3` [Example 28], the concentration for half-maximal inhibition (IC50) at MCL1/Bim is 0.12 nM.

For the compound `COc1nn(C)cc1C(=O)N[S@@]1(=O)=NC(=O)c2ccc3c(c2)N(C[C@@H]2CC[C@H]2[C@@H](O)C#CC[C@H](C)C1)C[C@@]1(CCCc2cc(Cl)ccc21)CO3` [Example 35], the IC50 at MCL1/Bim was 0.043 nM.

Regarding `COc1nn(C)cc1C(=O)N[S@@]1(=O)=NC(=O)c2ccc3c(c2)N(C[C@@H]2CC[C@H]2[C@H](OC)C#CC[C@H](C)C1)C[C@@]1(CCCc2cc(Cl)ccc21)CO3` [Example 38], the IC50 on MCL1/Bim was found to be 0.11 nM.

Regarding `COC[C@@H]1CC=C[C@@H](OC)[C@@H]2CC[C@H]2CN2C[C@@]3(CCCc4cc(Cl)ccc43)COc3ccc(cc32)C(=O)N=[S@](=O)(NC(=O)COC2CCOCC2)C1` [Example 44], the IC50 at MCL1/Bim worked out at 0.648 nM.

In the case of `COC[C@H]1C/C=C/[C@H](OC)[C@@H]2CC[C@H]2CN2C[C@@]3(CCCc4cc(Cl)ccc43)COc3ccc(cc32)C(=O)N=[S@@](=O)(NC(=O)COC2CCOCC2)C1` [Example 45], the IC50 at MCL1/Bim was 0.088 nM.

Take `COc1nn(C)cc1C(=O)N[S@@]1(=O)=NC(=O)c2ccc3c(c2)N(C[C@@H]2CC[C@H]2[C@@H](OCCN2CCN(C)CC2)/C=C/C[C@H](C)C1)C[C@@]1(CCCc2cc(Cl)ccc21)CO3` [Example 59]: the IC50 on MCL1/Bim is 0.076 nM.

`CO[C@H]1/C=C/[C@H](OC)[C@H](C)C[S@@](=O)(Nc2ncnc3nn(C)cc23)=NC(=O)c2ccc3c(c2)N(C[C@@H]2CC[C@H]21)C[C@@]1(CCCc2cc(Cl)ccc21)CO3` [Example 67]: the IC50 at MCL1/Bim was 0.06 nM.

For the compound `COc1nn(C)cc1C(=O)N[S@@]1(=O)=NC(=O)c2ccc3c(c2)N(C[C@@H]2CC[C@H]2[C@@H](OC(=O)c2cn(C)nc2OC)/C=C/[C@H](O)[C@H](C)[C@H]1C)C[C@@]1(CCCc2cc(Cl)ccc21)CO3` [Example 89], the concentration for half-maximal inhibition (IC50) at MCL1/Bim was 0.53 nM.

As for `COc1nn(C)cc1C(=O)N[S@@]1(=O)=NC(=O)c2ccc3c(c2)N(C[C@@H]2CC[C@H]2[C@@H](OC(=O)c2cn(C)nc2OC)CC[C@H](O)[C@H](C)[C@H]1C)C[C@@]1(CCCc2cc(Cl)ccc21)CO3` [Example 90], the concentration for half-maximal inhibition (IC50) at MCL1/Bim is 2.19 nM.

Consider `COc1nn(C)cc1C(=O)N[S@@]1(=O)=NC(=O)c2ccc3c(c2)N(C[C@@H]2CC[C@H]2[C@@](C)(O)/C=C/C[C@H](C)C1)C[C@@]1(CCCc2cc(Cl)ccc21)CO3` [Example 94], for which the IC50 at MCL1/Bim amounted to 0.084 nM.

As to `COc1nn(C)cc1C(=O)N[S@@]1(=O)=NC(=O)c2ccc3c(c2)N(C[C@@H]2CC[C@H]2[C@](O)(CC(=O)N2CC(N4CCOCC4)C2)/C=C/C[C@H](C)C1)C[C@@]1(CCCc2cc(Cl)ccc21)CO3` [Example 107], on MCL1/Bim, the half-maximal inhibitory concentration (IC50) stood at 0.036 nM.

Consider `COc1nn(C)cc1C(=O)N[S@@]1(=O)=NC(=O)c2ccc3c(c2)N(C[C@@H]2CC[C@H]2[C@@H](OC)[C@H](O)[C@@H](O)C[C@H](C)C1)C[C@@]1(CCCc2cc(Cl)ccc21)CO3` [Example 125], for which, on MCL1/Bim, the half-inhibitory concentration (IC50) amounted to 0.051 nM.

Turning to `COc1nn(C)cc1C(=O)N[S@@]1(=O)=NC(=O)c2ccc3c(c2)N(C[C@@H]2CC[C@H]2[C@H](OC)[C@H](O)[C@@H](O)C[C@H](C)C1)C[C@@]1(CCCc2cc(Cl)ccc21)CO3` [Example 126], the half-inhibitory concentration (IC50) at MCL1/Bim stood at 0.13 nM.

As to `COc1nn(C)cc1C(=O)N[S@@]1(=O)=NC(=O)c2ccc3c(c2)N(C[C@@H]2CC[C@H]2[C@@H](OC)/C=C/[C@H](F)[C@H](C)C1)C[C@@]1(CCCc2cc(Cl)ccc21)CO3` [Example 127], the 50% inhibitory concentration (IC50) at MCL1/Bim was found to be 0.059 nM.

Turning to `CCCO[C@H]1/C=C/[C@H](OC)[C@@H]2CC[C@H]2CN2C[C@@]3(CCCc4cc(Cl)ccc43)COc3ccc(cc32)C(=O)N=[S@](=O)(NC(=O)c2cn(C)nc2OC)C[C@H]1C` [Example 144], at MCL1/Bim, the concentration for half-maximal inhibition (IC50) stood at 0.202 nM.

Take `CO[C@H]1/C=C/C[C@H](C)[C@@H](C)[S@@](=O)(NC(=O)c2cnn(C)c2)=NC(=O)c2ccc3c(c2)N(C[C@@H]2CC[C@H]21)C[C@]1(CO3)C[C@@H]2C[C@@H]2c2cc(Cl)ccc21` [Example 171]: at MCL1/Bim, the 50% inhibitory concentration (IC50) was found to be 0.176 nM.

For the compound `CO[C@H]1/C=C/C[C@H](C)C[S@@](=O)(NC(=O)NC2CC2)=NC(=O)c2ccc3c(c2)N(C[C@@H]2CC[C@H]21)C[C@]1(CO3)SCCc2cc(Cl)ccc21` [Example 177], the IC50 at MCL1/Bim was found to be 0.09 nM.

As to `CO[C@H]1/C=C/CCC[S@@](=O)(NC(=O)c2cnn(C)c2)=NC(=O)c2ccc3c(c2)N(C[C@@H]2CC[C@H]21)C[C@]1(CO3)SCCc2cc(Cl)ccc21` [Example 182], at MCL1/Bim, the IC50 is 0.06 nM.

Take `CO[C@H]1/C=C/C[C@H](C)C[S@@](=O)(Nc2ncnc3nn(C)cc23)=NC(=O)c2ccc3c(n2)N(C[C@@H]2CC[C@H]21)C[C@@]1(CCCc2cc(Cl)ccc21)CO3` [Example 194]: the concentration for half-maximal inhibition (IC50) at MCL1/Bim came to 0.1 nM.

On to `CCn1cc(C(=O)N[S@@]2(=O)=NC(=O)c3ccc4c(n3)N(C[C@@H]3CC[C@H]3[C@@H](OC)/C=C/C[C@H](C)[C@H]2C)C[C@@]2(CCCc3cc(Cl)ccc32)CO4)cn1` [Example 199], for which, at MCL1/Bim, the 50% inhibitory concentration (IC50) turned out to be 0.17 nM.

As to `CO[C@H]1/C=C/C[C@H](C)[C@@H](C)[S@@](=O)(NC(=O)c2cc3n(c2)CCOC3)=NC(=O)c2ccc3c(n2)N(C[C@@H]2CC[C@H]21)C[C@@]1(CCCc2cc(Cl)ccc21)CO3` [Example 202], the IC50 at MCL1/Bim was determined as 0.2 nM.
